From PubChem BioAssay (NCI)
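Five compound concentrations were applied to cells in 96-well plates for 48 hours; endpoints were derived by simple linear interpolation of the resulting dose-response curve. At the GI50, growth is halved. TGI: total growth inhibition.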

What was measured:
Assay in all cases: growth of human tumour cells (NCI), 48 h
[1] = test system: MDA-N
[2] = test system: XF 498 CNS
[3] = test system: KM20L2 colon
[4] = test system: LXFL 529 NSCLC
[5] = test system: DLD-1 colon
[6] = test system: DMS 273 small cell lung
[7] = test system: M19-MEL melanoma
[8] = test system: HOP-18 NSCLC
[9] = test system: RXF-631 renal

Row | SMILES | TGI [1] | TGI [2] | TGI [3] | TGI [4] | TGI [5] | TGI [6] | TGI [7] | GI50 [3] | GI50 [8] | TGI [8] | GI50 [5] | GI50 [7] | TGI [9]
1 | C=C(C)C1Cc2cc(C(C)=O)ccc2O1 (configuration not stated) | > 100 µM |  |  |  |  |  |  |  |  |  |  |  | 
2 | CC(C)(C)CC(C)(C)c1cc2c(O)c(c1)Cc1cc(C(C)(C)CC(C)(C)C)cc(c1O)Cc1cc(C(C)(C)CC(C)(C)C)cc(c1O)Cc1cc(C(C)(C)CC(C)(C)C)cc(c1O)Cc1cc(C(C)(C)CC(C)(C)C)cc(c1O)Cc1cc(C(C)(C)CC(C)(C)C)cc(c1O)Cc1cc(C(C)(C)CC(C)(C)C)cc(c1O)Cc1cc(C(C)(C)CC(C)(C)C)cc(c1O)C2 |  | > 100 µM | > 100 µM | > 100 µM | > 100 µM | > 100 µM | > 100 µM |  |  |  |  |  | 
3 | CC1=CC[C@@H]2C(=O)C=CC=C[C@H]12.[C-]#[O+].[C-]#[O+].[C-]#[O+].[Fe] |  |  | > 100 µM |  | > 100 µM |  | > 100 µM | > 100 µM | > 100 µM | > 100 µM | > 100 µM | > 100 µM | 
4 | CCCCCCCCCCCc1cc(=O)c2c(O)cccc2o1 |  | > 100 µM |  | > 100 µM | > 100 µM | > 100 µM | > 100 µM |  |  | > 100 µM |  |  | > 100 µM
5 | CCOc1ccc2c(c1)[n+]([O-])c(-c1ccc([N+](=O)[O-])cc1)c(N)[n+]2[O-] |  |  | > 100 µM | > 100 µM | > 100 µM | > 100 µM | > 100 µM |  |  | > 100 µM |  |  | > 100 µM
6 | Cc1cccc(/C=N/N=C(\N)NO)n1 |  | > 100 µM |  | 53.1 µM | > 100 µM | > 100 µM | > 100 µM |  |  |  |  |  | > 100 µM
7 | CC(C)=CC1(C)/C(=N\O)C(C)(CC(C)C)C(=O)N1O (configuration not stated) |  | > 100 µM | > 100 µM | > 100 µM | > 100 µM | > 100 µM | > 100 µM |  |  |  |  |  | > 100 µM
8 | CC(NNC(=S)N1CCN(c2ccccn2)CC1)c1cccc[n+]1[O-] (configuration not stated) | > 100 µM |  |  |  |  |  |  |  |  |  |  |  | 
9 | COc1ccccc1C(=O)Nc1ccc(Cl)c(C(=O)OC(C)C)c1 | > 100 µM | 54.7 µM | > 100 µM |  |  | > 100 µM | > 100 µM |  |  | > 100 µM |  |  | > 100 µM
10 | COC(=O)CCC(=O)Nc1cc(C)ccc1C |  | > 100 µM |  | > 100 µM | > 100 µM | > 100 µM | > 100 µM |  |  | > 100 µM |  |  | > 100 µM
11 | Cn1c(=O)c2[nH]c(CCS)nc2n(C)c1=O | > 100 µM |  |  |  |  |  |  |  |  |  |  |  | 
12 | Cn1c(=S)c2[nH]c(SCc3cccnc3)nc2n(C)c1=O | > 100 µM |  |  |  |  |  |  |  |  |  |  |  | 
13 | COC(=O)C1OC(SCCN)C(O)C(O)C1O (configuration not stated) | > 100 µM |  |  |  |  |  |  |  |  |  |  |  | 
14 | CCOC(=O)C1=C(Nc2cccc3ccccc23)OCC1=O |  | > 100 µM | > 100 µM | > 100 µM | > 100 µM | > 100 µM |  |  |  |  |  |  | > 100 µM
15 | CCCCCC/C=C\CCCCCCCCCc1cccc(OC)c1O | > 100 µM |  |  |  |  |  |  |  |  |  |  |  | 
16 | C#CCOCn1cnc2c(N)ncnc21 |  | > 100 µM | > 100 µM | > 100 µM | > 100 µM | > 100 µM | > 100 µM |  |  | > 100 µM |  |  | > 100 µM
17 | Cc1c(-c2cc(-c3ccccc3)n[nH]c2=O)c2ccccc2n1C |  | > 100 µM | > 100 µM | > 100 µM | > 100 µM | > 100 µM | > 100 µM |  |  | > 100 µM |  |  | 
18 | CC(C)(C)c1cc(C#N)c2c(c1)C(=O)OC2(c1ccccc1)c1ccccc1C#N (configuration not stated) |  | > 100 µM | > 100 µM | > 100 µM | > 100 µM | > 100 µM | > 100 µM |  |  | > 100 µM |  |  | 
19 | O=C(O)c1ccccc1C(=O)Nc1cc2c(cc1Br)-c1ccccc1C2=O | > 100 µM |  |  |  |  |  |  |  |  |  |  |  | 
20 | C=CCC(O)c1cc(OC)ccc1OC (configuration not stated) |  | > 100 µM |  | > 100 µM |  | > 100 µM | > 100 µM |  |  |  |  |  | > 100 µM
21 | O=C(CC(=O)c1cccc2ccccc12)C(=O)Nc1nccs1 |  |  | > 100 µM | > 100 µM | > 100 µM | > 100 µM | > 100 µM |  |  | > 100 µM |  |  | 
22 | N#CC1=C(N)Oc2c(ccc3cccnc23)C1c1ccccc1 (configuration not stated) |  | 77.7 µM |  | > 100 µM | > 100 µM | > 100 µM | > 100 µM |  |  | > 100 µM |  |  | 
